Results on 2 compounds are retold here after article PMC6974402 (Nature, 2019).

In one assay the target is T1, SAP1 (Anopheles gambiae, UniProt Q7Q3U7).
T1 sequence (Q7Q3U7 18-127): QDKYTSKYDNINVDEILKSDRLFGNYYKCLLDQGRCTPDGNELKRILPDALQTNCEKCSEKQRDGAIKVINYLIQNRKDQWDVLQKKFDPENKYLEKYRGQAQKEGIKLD
Kind of assay: 1-NPN fluorescence displacement. The assay is classed as binding.

The next assay has as its target T2, SAP3 (Anopheles gambiae, UniProt Q6H8Z2).
T2 sequence (Q6H8Z2 18-126): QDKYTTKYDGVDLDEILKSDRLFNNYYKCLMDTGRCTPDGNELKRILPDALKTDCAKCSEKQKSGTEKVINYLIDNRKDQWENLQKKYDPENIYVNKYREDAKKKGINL
Put plainly: 1-NPN fluorescence displacement. The assay is classed as binding.

In the case of `CC1(C)[C@H](C(=O)O[C@H](C#N)c2cccc(Oc3ccccc3)c2)[C@@H]1C=C(Br)Br` [deltamethrin], the IC50 at SAP1 and on SAP3 was greater than 10 µM each time.

Take `CC1(C)C(C=C(Cl)Cl)C1C(=O)OC(C#N)c1cccc(Oc2ccccc2)c1` (stereo not drawn) [α-cypermethrin]: the IC50 on SAP1 was determined as 9.02 µM.
